In patent US12173088B2, “Anti-microbial peptides” (priority 2018, dated 2024):
Converted amounts (≈) assume the structure as drawn. Square brackets hold non-standard residues; d marks the D form. Peptide text beside a SMILES is read from it. Orn = NCCC[C@H](N)C(=O)O

Assays:
P. aeruginosa PAO1 = format: cell-based, Pseudomonas aeruginosa; details: PAO1
Protocol: (§1) The antibacterial activity of peptides was evaluated using a standard broth microdilution protocol with minor modifications as described (Mishra, et al. (2012) J. Am. Chem. Soc., 134:12426-12429). In brief, logarithmic phase bacterial cultures (i.e., optical density at 600 nm≈0.5) were diluted to OD600 0.001 and partitioned into a 96-well polystyrene microplate at 90 μL per well. After treatment with 10 μL of peptide solutions two fold diluted to various concentrations, microplates were incubated at 37° C. overnight and read on a ChroMate® 4300 Microplate Reader at 630 nm (GMI, Ramsey, MN). […] To study the influence of medium conditions on the antimicrobial activity of peptides against S. aureus USA300, up to 200 mM sodium chloride (NaCl), 2 mM of calcium chloride, 5-10% of human serum, mouse plasma, fluid, or supernatants of tissue homogenates were included into the assays.
(§2) The bacterial strains used include the Gram-positive bacteria methicillin-resistant Staphylococcus aureus USA300, Enterococcus faecium V286-17 (VRE), S. aureus M838-17 (MRSA) and Gram-negative bacteria E. coli E423-17, E416-7 (ampC), P. aeruginosa E411-17, PA01, K. pneumoniae E406-17, ATCC13883, and A. baumannii B26-16. Bacteria were cultivated in tryptic soy broth (TSB) from BD Bioscience.
(§3) The antibacterial activity of peptides was evaluated using a standard broth microdilution protocol with minor modifications (Mishra, et al. (2017) Acta Biomater., 49:316-328). In brief, logarithmic phase bacterial cultures (i.e., optical density at 600 nm≈0.5) were diluted to 0.001 OD and aliquoted 90 μL per well into a 96-well polystyrene microplate. Added 10 μL peptides per well with various concentrations, plates were incubated at 37° C., overnight. Post incubation the plates are read at 630 nm using a ChroMate® Microplate Reader (GMI). […] To study the influence of medium conditions on the antimicrobial activity of peptides against S. aureus USA300 at different pHs (6.8, 7.2, and 8.0), 150 mM sodium chloride (NaCl), 5-10% of human serum, mouse plasma, and peritoneal fluid were included into the assays.

E. coli ATCC 25922 = format: cell-based, Escherichia coli; details: ATCC 25922
Protocol: as §1, §3

Hemolytic assay = format: cell-based, human; details: human, human red blood cells, 2% (v/v)
Protocol: (§4) Briefly, human red blood cells (hRBCs) were washed three times with phosphate buffer saline (PBS) and diluted to a 2% solution (v/v). After peptide treatment, incubation at 37° C. for one hour, and centrifugation at 5000 rpm for 10 minutes, aliquots of the supernatant were carefully transferred to a fresh 96-well microplate. The amount of hemoglobin released was measured at 545 nm. The percent lysis was calculated by assuming 100% release when human blood cells were treated with 2% Triton™ X-100, and 0% release when incubated with PBS buffer. The peptide concentration that caused 50% lysis of hRBCs is defined as HL50. The cell selectivity index (CSI) was calculated as the ratio between HL50 and MIC of the corresponding peptide against a select pathogenic species.
(§5) Hemolytic assays of peptides were performed as described (Mishra, et al. (2017) Acta Biomater., 49:316-328). Briefly, human red blood cells (hRBCs) obtained from UNMC Blood Bank. The blood washed 3× with isotonic saline (0.9% NaCl) and diluted to 2% blood cells (v/v). Peptide horine and verine at various concentrations were added into the 2% blood cells and incubated at 37° C. for 1 hour. Post incubation the plates were spun at 2000 rpm for 10 minutes, aliquots of the supernatant were carefully transferred to a fresh 96-well microplate. The amount of cells lysed is proportional to the hemoglobin released and measured at 545 nm using a ChroMate® microplate reader. The percent lysis was calculated by assuming 100% release when human blood cells were treated with 1% Triton™ X-100, and 0% release when incubated with PBS. The peptide concentration that caused 50% lysis of hRBCs is defined as HL50.

S. aureus USA300 = assay: microbe, parasite or virus in culture; format: cell-based, Staphylococcus aureus
Description: The bacterial strains used include the Gram-positive strains Staphylococcus aureus USA300 LAC, S. epidermidis 1457, and Bacillus subtilis 168, as well as the Gram-negative isolates Escherichia coli K12 and Acinetobacter baumannii B2367-12. Additional, drug resistance strains include Gram-positive Enterococcus faecium V286-17 (VRE) and S. aureus M838-17 (MRSA) and Gram-negative E. coli E423-17, E. coli E416-17 (ampC), and P. aeruginosa E411-17. Bacteria were cultivated in tryptic soy broth (TSB) (BD Bioscience, MD).
as §1, §2, §3

K. pneumoniae ATCC 13883 = format: cell-based, Klebsiella pneumoniae; details: ATCC 13883
Protocol: as §1, §2, §3

[1] = system: human red blood cells (hRBCs); assay: Hemolytic assay; format: cell-based
Protocol: as §4, §5

[2] = system: Klebsiella pneumoniae clinical strains; assay: microbe, parasite or virus in culture; details: Klebsiella pneumoniae
Protocol: as §3

Row | SMILES | MIC P. aeruginosa PAO1 (P. aeruginosa PAO1) [µM] | MIC K. pneumoniae (K. pneumoniae ATCC 13883) [µM] | MIC E. coli ATCC 25922 (E. coli ATCC 25922) [µM] | MIC S. aureus USA 300 (S. aureus USA300; USA300) [µM] | HL50 [1] [µM] | also measured
1 | CC(C)C[C@H](NC(=O)[C@H](CC(C)C)NC(=O)[C@H](CCCCN)NC(=O)CNC(=O)[C@H](CC(C)C)NC(=O)[C@H](CC(C)C)NC(=O)[C@H](CO)NC(=O)[C@H](CC(C)C)NC(=O)[C@H](CC(C)C)NC(=O)[C@H](CC(C)C)NC(=O)[C@H](CO)NC(=O)[C@H](CC(C)C)NC(=O)CN)C(N)=O [DFT502, GLSLLLSLLGKLL] (H-GLSLLLSLLGKLL-NH2; N-terminus and C-terminus assumed) |  |  |  |  |  | MIC PA (P. aeruginosa PAO1) (P. aeruginosa PAO1): >25 µM; MIC EC (E. coli ATCC 25922) (E. coli ATCC 25922): >25 µM; HC50 at 1 h (Hemolytic assay): 3.1 µM; MIC SA (S. aureus USA300) (S. aureus USA300; USA300): 1.6 µM (≈ 2.14 µg/mL)
2 | CC(C)C[C@H](NC(=O)[C@H](CC(C)C)NC(=O)[C@H](CCCN)NC(=O)CNC(=O)[C@H](CC(C)C)NC(=O)[C@H](C)NC(=O)[C@H](CCCN)NC(=O)[C@H](CC(C)C)NC(=O)[C@H](C)NC(=O)[C@H](CO)NC(=O)[C@H](CC(C)C)NC(=O)[C@H](CC(C)C)NC(=O)CN)C(N)=O [DFT516, GLLSALOALGOLL] (H-GLLSAL[Orn]ALG[Orn]LL-NH2; N-terminus assumed) | >25 | 3.1 (≈ 3.93 µg/mL) | 3.1 to 6.25 | 1.56 (≈ 1.98 µg/mL) | 36 | 
3 | CC(C)C[C@H](NC(=O)[C@H](CC(C)C)NC(=O)[C@H](CCCCN)NC(=O)CNC(=O)[C@H](CC(C)C)NC(=O)[C@H](CO)NC(=O)[C@H](CC(C)C)NC(=O)[C@H](CO)NC(=O)[C@H](CC(C)C)NC(=O)[C@H](CC(C)C)NC(=O)CN)C(N)=O [DFT524, GLLSL-SL-GKLL] (H-GLLSLSLGKLL-NH2; N-terminus and C-terminus assumed) | >25 |  | >25 | >25 | >300 | MIC K. pneumonia ATCC 13883 (K. pneumoniae ATCC 13883): >25 µM
4 | CC(C)C[C@H](NC(=O)[C@H](CC(C)C)NC(=O)[C@H](CCCCN)NC(=O)CNC(=O)[C@H](CC(C)C)NC(=O)[C@H](CO)NC(=O)[C@H](CO)NC(=O)[C@H](CC(C)C)NC(=O)[C@H](CC(C)C)NC(=O)CN)C(N)=O [DFT525, GLLS--SL-GKLL] (H-GLLSSLGKLL-NH2; N-terminus and C-terminus assumed) | >25 |  | >25 | >25 | >300 | MIC K. pneumonia ATCC 13883 (K. pneumoniae ATCC 13883): >25 µM
5 | CC(C)C[C@H](NC(=O)[C@H](CC(C)C)NC(=O)[C@H](CCCCN)NC(=O)CNC(=O)[C@H](CC(C)C)NC(=O)[C@H](CO)NC(=O)[C@H](CO)NC(=O)[C@H](CC(C)C)NC(=O)CN)C(N)=O [DFT526, GL-S--SL-GKLL] (H-GLSSLGKLL-NH2; N-terminus and C-terminus assumed) | >25 |  | >25 | >25 | >300 | MIC K. pneumonia ATCC 13883 (K. pneumoniae ATCC 13883): >25 µM
6 | CC(C)C[C@H](NC(=O)[C@H](CC(C)C)NC(=O)[C@H](CCCCN)NC(=O)[C@H](CC(C)C)NC(=O)CNC(=O)[C@H](CC(C)C)NC(=O)[C@H](CCCCN)NC(=O)[C@H](CC(C)C)NC(=O)[C@H](CC(C)C)NC(=O)[C@H](CC(C)C)NC(=O)[C@H](CO)NC(=O)[C@H](CC(C)C)NC(=O)CN)C(N)=O [DFT562, GLSLLLKLGLKLL] (H-GLSLLLKLGLKLL-NH2; N-terminus and C-terminus assumed) |  |  |  |  |  | MIC PA (P. aeruginosa PAO1) (P. aeruginosa PAO1): >25 µM; MIC EC (E. coli ATCC 25922) (E. coli ATCC 25922): >25 µM; HC50 at 1 h (Hemolytic assay): < 25 µM
7 | CN(C)c1cc(NC(=O)CNC(C)(C)C)c(O)c2c1C[C@H]1C[C@H]3[C@H](N(C)C)C(O)=C(C(N)=O)C(=O)[C@@]3(O)C(O)=C1C2=O [Tigecycline, reference compound] |  |  |  |  |  | MIC ([2]; strain KP-231-18): 4 µM (≈ 2.34 µg/mL); MIC ([2]; strain KP-232-18): 8 µM (≈ 4.69 µg/mL); MIC ([2]; strain KP-245-18): 4 µM (≈ 2.34 µg/mL); MIC ([2]; strain KP-249-18): 2 µM (≈ 1.17 µg/mL); MIC ([2]; strain KP-253-18): 2 µM (≈ 1.17 µg/mL); MIC ([2]; strain KP-256-18): 4 µM (≈ 2.34 µg/mL); MIC ([2]; strain KP-257-18): 8 µM (≈ 4.69 µg/mL); MIC ([2]; strain KP-262-18): 4 µM (≈ 2.34 µg/mL); MIC ([2]; strain KP-270-18): 4 µM (≈ 2.34 µg/mL); MIC ([2]; strain KP-B42-15): < 2 µM; MIC ([2]; strain KP-B53-15): 2 µM (≈ 1.17 µg/mL); MIC ([2]; strain KP-B73-15): 2 µM (≈ 1.17 µg/mL); MIC ([2]; strain KP-B77-15): < 2 µM; MIC ([2]; strain KP-B1725-18): 2 µM (≈ 1.17 µg/mL)

Now from value to compound, other results behind:

Row | MIC P. aeruginosa PAO1 (P. aeruginosa PAO1) [µM] | MIC K. pneumoniae (K. pneumoniae ATCC 13883) [µM] | MIC E. coli ATCC 25922 (E. coli ATCC 25922) [µM] | MIC S. aureus USA 300 (S. aureus USA300; USA300) [µM] | SMILES | HL50 [1] [µM] | also measured
8 | >25 | 3.1 (≈ 3.97 µg/mL) | 3.1 (≈ 3.97 µg/mL) | 1.56 (≈ 2 µg/mL) | CC(C)C[C@H](NC(=O)[C@H](CC(C)C)NC(=O)[C@H](CCCCN)NC(=O)CNC(=O)[C@H](CC(C)C)NC(=O)[C@H](C)NC(=O)[C@H](CCCN)NC(=O)[C@H](CC(C)C)NC(=O)[C@H](C)NC(=O)[C@H](CO)NC(=O)[C@H](CC(C)C)NC(=O)[C@H](CC(C)C)NC(=O)CN)C(N)=O [DFT515, GLLSALOALGKLL] (H-GLLSAL[Orn]ALGKLL-NH2; N-terminus assumed) | 36 | 
9 | >25 | >25 | 25 (≈ 31.3 µg/mL) | 25 (≈ 31.3 µg/mL) | CC(C)C[C@H](NC(=O)[C@H](CC(C)C)NC(=O)[C@H](CCCCN)NC(=O)CNC(=O)[C@H](CC(C)C)NC(=O)[C@H](C)NC(=O)[C@H](CCCCN)NC(=O)[C@H](CC(C)C)NC(=O)[C@H](C)NC(=O)[C@H](CO)NC(=O)[C@H](CC(C)C)NC(=O)[C@H](C)NC(=O)CN)C(N)=O [DFT528, GALSALKALGKLL] (H-GALSALKALGKLL-NH2; N-terminus assumed) | >50 | MIC against S. aureus (S. aureus USA300; USA300): 12.5 to 25 µM
10 | >25 | >25 | 25 (≈ 31.3 µg/mL) | 75 (≈ 94 µg/mL) | CC(C)C[C@H](NC(=O)[C@H](C)NC(=O)[C@H](CCCCN)NC(=O)CNC(=O)[C@H](CC(C)C)NC(=O)[C@H](C)NC(=O)[C@H](CCCCN)NC(=O)[C@H](CC(C)C)NC(=O)[C@H](C)NC(=O)[C@H](CO)NC(=O)[C@H](CC(C)C)NC(=O)[C@H](CC(C)C)NC(=O)CN)C(N)=O [DFT529, GLLSALKALGKAL] (H-GLLSALKALGKAL-NH2; N-terminus assumed) | >50 | MIC against S. aureus (S. aureus USA300; USA300): 12.5 to 25 µM
11 | >25 | >25 | >25 | >25 | CC(C)C[C@H](NC(=O)[C@H](C)NC(=O)[C@H](CCCCN)NC(=O)CNC(=O)[C@H](CC(C)C)NC(=O)[C@H](C)NC(=O)[C@H](CCCCN)NC(=O)[C@H](CC(C)C)NC(=O)[C@H](C)NC(=O)[C@H](CO)NC(=O)[C@H](CC(C)C)NC(=O)[C@H](C)NC(=O)CN)C(N)=O [DFT530, GALSALKALGKAL] (H-GALSALKALGKAL-NH2; N-terminus assumed) | >100 | Antimicrobial activity (S. aureus USA300; at 25 μM): inactive
